# Source: the supplement of paper PMC10627819
# Legend:
# Assay in all cases: Bliss interaction score (quartile over a dose matrix) (fitness difference); higher = more antagonism (negative = synergy)
# S. aureus DSM 20231 = tested on: S. aureus DSM 20231
# How it was run: (§1)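 The Bliss score is observed fitness minus expected fitness, where the expected value is the product of single-drug fitness values inferred from combination data. Fitness is OD595 at entry into stationary phase normalised to the plate's robust no-drug mean and capped at 1. Scores are reported as quartiles spanning technical, biological and donor/recipient replicates.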
# B. subtilis 168 = tested on: B. subtilis 168
# How it was run: as §1
# S. pneumoniae D39V = tested on: S. pneumoniae D39V
# How it was run: as §1
# S. aureus Newman = tested on: S. aureus Newman
# How it was run: as §1
# 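Also: first quartile when negative (synergy) and third quartile when positive (antagonism).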
Compound,Bliss interaction score (S. aureus DSM 20231),Bliss interaction score (B. subtilis 168),Bliss interaction score (S. pneumoniae D39V),Bliss interaction score (S. aureus Newman)
CC(=O)OC[C@H]1O[C@@H]([S-])[C@H](OC(C)=O)[C@@H](OC(C)=O)[C@@H]1OC(C)=O.CCP(CC)CC.[Au+] [Auranofin] + C[C@@H](O)[C@H]1C(=O)N2C(C(=O)O)=C(SCCNC=N)C[C@H]12 [Imipenem],-0.0179,-0.0439,-0.0587,0.162
COc1c(N2C[C@@H]3CCCN[C@@H]3C2)c(F)cc2c(=O)c(C(=O)O)cn(C3CC3)c12 [Moxifloxacin] + CC[C@H]1OC(=O)[C@H](C)C(=O)[C@H](C)[C@@H](O[C@@H]2O[C@H](C)C[C@H](N(C)C)[C@H]2O)[C@](C)(OC)C[C@@H](C)C(=O)[C@H](C)[C@H]2N(CCCCn3cnc(-c4cccnc4)c3)C(=O)O[C@]12C [Telithromycin],0.0615,0.0281,0.0543,0.0472
N[C@@H]1CONC1=O [CycloserineD] + CC1=C\[C@@H](O)CC(=O)Cc2nc(co2)C(=O)N2CCC=C2C(=O)O[C@H](C(C)C)[C@H](C)/C=C/C(=O)NC\C=C\1 [Virginiamycin M1],0.101,-0.0364,-0.0528,0.0587
CC(=O)OC[C@H]1O[C@@H]([S-])[C@H](OC(C)=O)[C@@H](OC(C)=O)[C@@H]1OC(C)=O.CCP(CC)CC.[Au+] [Auranofin] + CO[C@@]12[C@H](COC(N)=O)C3=C(C(=O)C(C)=C(N)C3=O)N1C[C@@H]1N[C@@H]12 [MitomycinC],-0.0435,0.0315,-0.126,0.0961
N[C@@H]1CONC1=O [CycloserineD] + CN(C)c1cc(NC(=O)CNC(C)(C)C)c(O)c2c1C[C@H]1C[C@H]3[C@H](N(C)C)C(O)=C(C(N)=O)C(=O)[C@@]3(O)C(O)=C1C2=O [Tigecycline],0.0966,-0.0502,-0.0514,0.0356
CC(=O)OC[C@H]1O[C@@H]([S-])[C@H](OC(C)=O)[C@@H](OC(C)=O)[C@@H]1OC(C)=O.CCP(CC)CC.[Au+] [Auranofin] + Cc1cc(NS(=O)(=O)c2ccc(N)cc2)no1 [Sulfamethoxazol],-0.0419,-0.0445,0.088,-0.0374
CC(=O)O[C@H]1C[C@@]2(C)[C@@H](C[C@@H](O)[C@H]3[C@@]4(C)CC[C@@H](O)[C@@H](C)[C@@H]4CC[C@@]32C)/C1=C(\CCC=C(C)C)C(=O)O [Fusidic acid] + CC[C@H]1OC(=O)[C@H](C)C(=O)[C@H](C)[C@@H](O[C@@H]2O[C@H](C)C[C@H](N(C)C)[C@H]2O)[C@](C)(OC)C[C@@H](C)C(=O)[C@H](C)[C@H]2N(CCCCn3cnc(-c4cccnc4)c3)C(=O)O[C@]12C [Telithromycin],-0.0334,-0.0755,-0.0347,0.0161
O=C1CN(/N=C/c2ccc([N+](=O)[O-])o2)C(=O)N1 [Nitrofurantoin] + CN[C@H](CC(C)C)C(=O)N[C@H]1C(=O)N[C@@H](CC(N)=O)C(=O)N[C@H]2C(=O)N[C@H]3C(=O)N[C@H](C(=O)N[C@H](C(=O)O)c4cc(O)cc(O)c4-c4cc3ccc4O)[C@H](O[C@H]3C[C@](C)(N)[C@@H](O)[C@H](C)O3)c3ccc(c(Cl)c3)Oc3cc2cc(c3O[C@@H]2O[C@H](CO)[C@@H](O)[C@H](O)[C@H]2O[C@H]2C[C@](C)(NCc3ccc(-c4ccc(Cl)cc4)cc3)[C@@H](O)[C@H](C)O2)Oc2ccc(cc2Cl)[C@H]1O [Oritavancin],-0.0379,0.0189,-0.0352,-0.118
N[C@@H]1CONC1=O [CycloserineD] + CC1(C)S[C@@H]2[C@H](NC(=O)Cc3ccccc3)C(=O)N2[C@H]1C(=O)O [PenicillinG],-0.0754,0.116,-0.221,0.0553
N[C@@H]1CONC1=O [CycloserineD] + Oc1cc(Cl)ccc1Oc1ccc(Cl)cc1Cl [Triclosan],0.0965,0.0246,-0.11,0.0356
CC(=O)O[C@H]1C[C@@]2(C)[C@@H](C[C@@H](O)[C@H]3[C@@]4(C)CC[C@@H](O)[C@@H](C)[C@@H]4CC[C@@]32C)/C1=C(\CCC=C(C)C)C(=O)O [Fusidic acid] + Cc1onc(-c2ccccc2)c1C(=O)N[C@@H]1C(=O)N2[C@@H]1SC(C)(C)[C@@H]2C(=O)O [Oxacillin],0.044,0.0607,0.152,0.0784
CC(=O)OC[C@H]1O[C@@H]([S-])[C@H](OC(C)=O)[C@@H](OC(C)=O)[C@@H]1OC(C)=O.CCP(CC)CC.[Au+] [Auranofin] + CC[C@H]1OC(=O)[C@H](C)[C@@H](O[C@H]2C[C@@](C)(OC)[C@@H](O)[C@H](C)O2)[C@H](C)[C@@H](O[C@@H]2O[C@H](C)C[C@H](N(C)C)[C@H]2O)[C@](C)(OC)C[C@@H](C)C(=O)[C@H](C)[C@@H](O)[C@]1(C)O [Clarithromycin],0.0219,0.0346,0.039,0.0636
CC[C@H]1OC(=O)[C@H](C)[C@@H](O[C@H]2C[C@@](C)(OC)[C@@H](O)[C@H](C)O2)[C@H](C)[C@@H](O[C@@H]2O[C@H](C)C[C@H](N(C)C)[C@H]2O)[C@](C)(OC)C[C@@H](C)C(=O)[C@H](C)[C@@H](O)[C@]1(C)O [Clarithromycin] + CCC[C@@H]1C[C@@H](C(=O)N[C@@H]([C@H]2O[C@H](SC)[C@H](O)[C@@H](O)[C@H]2O)[C@H](C)Cl)N(C)C1 [Clindamycin],-0.0458,0.0458,0.0678,-0.066
CC[C@H]1OC(=O)[C@H](C)[C@@H](O[C@H]2C[C@@](C)(OC)[C@@H](O)[C@H](C)O2)[C@H](C)[C@@H](O[C@@H]2O[C@H](C)C[C@H](N(C)C)[C@H]2O)[C@](C)(OC)C[C@@H](C)C(=O)[C@H](C)[C@@H](O)[C@]1(C)O [Clarithromycin] + CN[C@H](CC(C)C)C(=O)N[C@H]1C(=O)N[C@@H](CC(N)=O)C(=O)N[C@H]2C(=O)N[C@H]3C(=O)N[C@H](C(=O)N[C@H](C(=O)O)c4cc(O)cc(O)c4-c4cc3ccc4O)[C@H](O[C@H]3C[C@](C)(N)[C@@H](O)[C@H](C)O3)c3ccc(c(Cl)c3)Oc3cc2cc(c3O[C@@H]2O[C@H](CO)[C@@H](O)[C@H](O)[C@H]2O[C@H]2C[C@](C)(NCc3ccc(-c4ccc(Cl)cc4)cc3)[C@@H](O)[C@H](C)O2)Oc2ccc(cc2Cl)[C@H]1O [Oritavancin],-0.0389,0.0293,0.0635,-0.0471
